Measured values as given in US20040102444A1, “Method for delivering drugs to the retina” (priority 2002, published 2004).

Tests used:
[1] = tested on: other RTKs including VEGF receptors; experiment: standard tyrosine kinase assay, other RTKs; type: biochemical
[2] = tested on: other receptors tested including VEGF receptors; experiment: cellular autophosphorylation assay, transfected Chinese hamster ovary cells
Description: (§1) In vivo activity requires drugs to enter cells and therefore agents are tested in cellular autophosphorylation assays, using Chinese hamster ovary cells transfected with one of several RTK genes.

[3] = tested on: PDGF receptors; experiment: as above; type: cell-based
Description: as §1

[4] = target: c-erbB2 (Homo sapiens, UniProt P04626); experiment: as above
Sequence of c-erbB2 (P04626 23-1255): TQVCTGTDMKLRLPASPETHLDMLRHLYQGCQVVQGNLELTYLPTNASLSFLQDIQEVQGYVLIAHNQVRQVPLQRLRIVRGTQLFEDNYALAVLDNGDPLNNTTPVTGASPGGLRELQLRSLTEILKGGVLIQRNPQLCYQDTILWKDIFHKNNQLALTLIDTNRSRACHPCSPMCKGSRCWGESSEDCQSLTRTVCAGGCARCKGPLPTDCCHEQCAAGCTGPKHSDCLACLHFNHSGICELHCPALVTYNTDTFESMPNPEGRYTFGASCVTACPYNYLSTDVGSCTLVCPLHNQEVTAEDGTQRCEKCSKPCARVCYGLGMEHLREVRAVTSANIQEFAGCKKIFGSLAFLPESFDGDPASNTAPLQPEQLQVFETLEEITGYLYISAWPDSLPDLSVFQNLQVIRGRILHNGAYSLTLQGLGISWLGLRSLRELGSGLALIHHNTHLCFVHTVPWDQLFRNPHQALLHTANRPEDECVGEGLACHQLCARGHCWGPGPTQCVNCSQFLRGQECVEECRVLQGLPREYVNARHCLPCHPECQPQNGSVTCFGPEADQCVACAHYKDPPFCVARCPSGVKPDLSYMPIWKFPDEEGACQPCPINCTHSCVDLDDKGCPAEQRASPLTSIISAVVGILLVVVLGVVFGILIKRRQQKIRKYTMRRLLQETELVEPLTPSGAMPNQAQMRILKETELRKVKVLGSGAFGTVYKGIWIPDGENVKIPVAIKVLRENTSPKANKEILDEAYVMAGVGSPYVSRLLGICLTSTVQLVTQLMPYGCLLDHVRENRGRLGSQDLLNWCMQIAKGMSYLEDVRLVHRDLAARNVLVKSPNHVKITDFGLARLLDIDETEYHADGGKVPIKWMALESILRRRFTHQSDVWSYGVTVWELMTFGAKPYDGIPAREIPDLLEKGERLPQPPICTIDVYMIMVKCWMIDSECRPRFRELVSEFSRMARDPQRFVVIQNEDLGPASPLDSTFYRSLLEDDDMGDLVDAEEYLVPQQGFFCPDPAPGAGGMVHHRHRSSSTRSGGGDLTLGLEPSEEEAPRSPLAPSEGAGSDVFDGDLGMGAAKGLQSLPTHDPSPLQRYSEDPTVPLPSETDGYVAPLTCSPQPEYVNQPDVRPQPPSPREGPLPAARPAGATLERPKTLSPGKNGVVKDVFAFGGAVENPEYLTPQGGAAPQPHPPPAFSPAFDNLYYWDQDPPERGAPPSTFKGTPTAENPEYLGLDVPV
Description: as §1

[5] = tested on: VEGF receptors; experiment: as above
Description: as §1

[6] = target: c-Kit (Homo sapiens, UniProt P10721); conditions: transfected Chinese hamster ovary cells
Sequence of c-Kit (P10721 26-976): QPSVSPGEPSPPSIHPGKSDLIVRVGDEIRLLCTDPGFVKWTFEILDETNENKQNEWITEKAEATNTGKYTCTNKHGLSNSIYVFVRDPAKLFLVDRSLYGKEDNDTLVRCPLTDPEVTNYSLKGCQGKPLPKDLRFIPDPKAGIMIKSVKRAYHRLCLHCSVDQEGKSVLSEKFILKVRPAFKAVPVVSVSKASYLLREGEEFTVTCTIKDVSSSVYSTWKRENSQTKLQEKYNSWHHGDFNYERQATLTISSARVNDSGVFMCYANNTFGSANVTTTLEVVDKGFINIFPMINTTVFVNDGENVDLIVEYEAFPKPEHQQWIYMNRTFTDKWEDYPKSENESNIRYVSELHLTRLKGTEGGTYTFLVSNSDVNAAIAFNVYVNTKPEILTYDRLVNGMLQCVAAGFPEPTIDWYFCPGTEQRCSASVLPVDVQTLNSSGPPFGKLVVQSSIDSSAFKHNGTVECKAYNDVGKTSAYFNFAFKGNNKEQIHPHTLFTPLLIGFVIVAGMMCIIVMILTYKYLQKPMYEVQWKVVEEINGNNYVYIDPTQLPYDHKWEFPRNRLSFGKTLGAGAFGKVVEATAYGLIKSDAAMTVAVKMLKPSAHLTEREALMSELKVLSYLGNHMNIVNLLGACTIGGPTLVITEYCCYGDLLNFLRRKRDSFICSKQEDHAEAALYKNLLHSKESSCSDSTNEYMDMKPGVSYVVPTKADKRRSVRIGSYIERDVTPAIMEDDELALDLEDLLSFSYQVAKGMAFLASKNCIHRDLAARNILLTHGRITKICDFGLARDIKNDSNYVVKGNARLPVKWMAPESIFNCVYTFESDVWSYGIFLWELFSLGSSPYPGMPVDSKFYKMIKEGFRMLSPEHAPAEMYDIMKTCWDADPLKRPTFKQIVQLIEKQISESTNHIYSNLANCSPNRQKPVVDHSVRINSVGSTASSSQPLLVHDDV

[7] = target: insulin receptor (Homo sapiens, UniProt P06213); experiment: cellular autophosphorylation assay, transfected Chinese hamster ovary cells
Sequence of insulin receptor (P06213 28-1382, species assumed): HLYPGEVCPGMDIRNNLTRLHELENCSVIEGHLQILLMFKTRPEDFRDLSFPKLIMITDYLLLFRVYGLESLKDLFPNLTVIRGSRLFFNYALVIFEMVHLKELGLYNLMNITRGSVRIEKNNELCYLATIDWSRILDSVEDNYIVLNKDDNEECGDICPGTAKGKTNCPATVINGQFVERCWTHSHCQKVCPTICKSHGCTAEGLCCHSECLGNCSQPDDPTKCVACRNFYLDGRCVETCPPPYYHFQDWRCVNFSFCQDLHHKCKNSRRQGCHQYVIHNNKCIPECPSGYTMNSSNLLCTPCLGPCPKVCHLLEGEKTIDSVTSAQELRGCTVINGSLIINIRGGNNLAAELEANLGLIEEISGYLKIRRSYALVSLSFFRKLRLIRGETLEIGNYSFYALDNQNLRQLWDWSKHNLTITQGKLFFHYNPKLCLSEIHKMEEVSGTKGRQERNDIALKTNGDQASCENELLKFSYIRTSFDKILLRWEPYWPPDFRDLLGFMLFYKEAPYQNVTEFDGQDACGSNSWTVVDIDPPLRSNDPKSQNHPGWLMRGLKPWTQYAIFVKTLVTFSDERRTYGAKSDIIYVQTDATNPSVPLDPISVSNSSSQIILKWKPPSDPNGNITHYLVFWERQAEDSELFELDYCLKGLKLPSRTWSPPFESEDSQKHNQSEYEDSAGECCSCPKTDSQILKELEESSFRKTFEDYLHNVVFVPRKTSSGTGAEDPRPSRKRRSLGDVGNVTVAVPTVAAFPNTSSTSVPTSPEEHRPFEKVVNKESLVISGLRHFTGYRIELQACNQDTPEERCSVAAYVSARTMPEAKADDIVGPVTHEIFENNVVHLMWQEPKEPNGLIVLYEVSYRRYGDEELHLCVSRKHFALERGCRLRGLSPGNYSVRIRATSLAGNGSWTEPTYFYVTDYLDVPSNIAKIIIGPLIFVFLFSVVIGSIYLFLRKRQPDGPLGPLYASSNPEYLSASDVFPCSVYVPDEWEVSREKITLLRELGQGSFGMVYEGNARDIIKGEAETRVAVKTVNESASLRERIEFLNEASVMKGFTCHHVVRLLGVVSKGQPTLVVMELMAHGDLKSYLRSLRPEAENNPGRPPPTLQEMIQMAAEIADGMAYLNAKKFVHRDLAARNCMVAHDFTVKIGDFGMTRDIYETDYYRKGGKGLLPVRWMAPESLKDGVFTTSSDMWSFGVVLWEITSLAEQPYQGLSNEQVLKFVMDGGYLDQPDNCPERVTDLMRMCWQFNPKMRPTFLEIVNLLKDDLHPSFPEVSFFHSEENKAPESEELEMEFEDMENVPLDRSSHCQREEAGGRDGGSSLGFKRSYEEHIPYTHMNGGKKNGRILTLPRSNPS
Description: as §1

[8] = tested on: C57BL/6 mice; experiment: VEGF-induced BRB breakdown measured with [3H]mannitol as tracer after topical administration; type: in vivo; conditions: suspension topically in one eye twice a day for 3 days prior to intraocular injection of VEGF
Description: Intraocular injections are performed with a Harvard pump microinjection apparatus and pulled glass micropipets. Each micropipet is calibrated to deliver 1 μL of vehicle upon depression of a foot switch. Mice are anesthetized with 25 mg/kg of ketamine and 4 mg/kg of xylazine, pupils are dilated with 1% tropicamide. Under a dissecting microscope, the sharpened tip of a micropipet is passed through the sclera just behind the limbus into the vitreous cavity, and the foot switch is depressed and 1 μL of 10^−6 M human VEGF (R&D Systems, Minneapolis, Minn.) is injected.
Six or 24 hours after intraocular injections, mice are given an intraperitoneal injection of 1 μCi/g body weight of [^3H]mannitol (New England Nuclear, Boston, Mass.). After one hour, mice are sacrificed and eyes are removed. The cornea and lens are removed and the entire retina is carefully dissected from the eyecup and placed within pre-weighed scintillation vials. […] All liquid is removed from the vials and remaining droplets are allowed to evaporate over 20 minutes. The vials are weighed and the tissue weights are recorded. One mL of NCSII solubilizing solution (Amersham, Chicago, Ill.) is added to each vial and the vials are incubated overnight in a 50° C. water bath. The solubilized tissue is brought to RT and decolorized with 20% benzoyl peroxide in toluene in a 50° C. water bath. […]

[9] = target: T1, Flt-1 (Homo sapiens, UniProt P17948); experiment: standard tyrosine kinase assay: phosphorylation of poly(GluTyr) by GST-fusion kinase domain; type: biochemical
T1 construct: GST-fusion proteins of the kinase domains of several tyrosine kinase receptors; GST
T1 sequence (P17948 827-1158 limits assumed): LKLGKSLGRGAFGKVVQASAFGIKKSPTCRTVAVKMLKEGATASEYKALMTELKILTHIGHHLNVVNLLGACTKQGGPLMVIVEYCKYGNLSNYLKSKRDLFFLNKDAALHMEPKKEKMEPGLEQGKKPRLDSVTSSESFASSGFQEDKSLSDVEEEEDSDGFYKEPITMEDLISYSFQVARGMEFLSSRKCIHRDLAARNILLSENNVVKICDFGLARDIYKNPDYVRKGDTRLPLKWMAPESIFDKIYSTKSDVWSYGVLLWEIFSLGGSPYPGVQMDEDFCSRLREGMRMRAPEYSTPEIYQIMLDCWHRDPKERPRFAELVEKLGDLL

| SMILES | inhibitory activity of other RTKs including VEGF receptors [1] | inhibition of autophosphorylation of other receptors tested including VEGF receptors [2] | inhibition of autophosphorylation of PDGF receptors [3] | inhibition of autophosphorylation of c-erbB2 [4] | inhibition of autophosphorylation of VEGF receptors [5] | inhibition of autophosphorylation of c-Kit [6] | inhibition of autophosphorylation of insulin receptor [7] | RRLR compared to contralateral eyes in the same mice [8] | inhibition of phosphorylation by the kinase domain of human VEGF receptor 1 [9] |
| --- | --- | --- | --- | --- | --- | --- | --- | --- | --- |
| Cc1ccc(NC(=O)c2ccccc2)cc1Nc1nccc(-c2cccnc2)n1 [CGP 53 716] | little or no inhibitory activity | poor inhibitors | potent inhibitors |  |  |  |  |  |  |
| Clc1ccc(Nc2nnc(Cc3ccncc3)c3ccccc23)cc1 [PTK 787] |  |  | inhibits autophosphorylation | poor inhibitor | inhibits autophosphorylation | inhibits autophosphorylation | poor inhibitor | not a significant difference | good inhibitor |
| Cc1ccc(NC(=O)c2ccc(CN3CCN(C)CC3)cc2)cc1Nc1nccc(-c2cccnc2)n1 [CGP 57 148] | little or no inhibitory activity | poor inhibitors | potent inhibitors |  |  |  |  |  |  |
